Source: patent US7763567B2, “Agrochemical compositions” (priority 2003, dated 2010)
Where a name gives a salt, the structure may show the parent alone. Read-outs that look alike come from different tables or passages of the source.

Columns and labels:
[1] = system: eight representative weed species; assay type: in vivo
Protocol: (§1) The bioperformance enhancement of paraquat in the presence of amines of the present invention was evaluated. An aqueous formulation of paraquat dichloride containing 0.5% by weight of amine (based on the weight of the parent amine and based on total spray volume) was applied using a moving track sprayer to eight representative weed species at 10, 20 and 40 g/ha (based on paraquat ion). The spray volume was equivalent to 200 l/ha.
(§2) Three replicates of each test were undertaken and the biological data (% activity where 0% represents no herbicidal effect and 100% represents complete kill) at 7 days after treatment is expressed in Table 4 as a mean over all species based on an average response over the combined rates. The results are compared with an equivalent formulation containing only paraquat chloride.
as §1, with “presence of some amines of” for “presence of amines of”, “dichloride containing 0.2% by weight” for “dichloride containing 0.5% by weight”
as §2, with “5” for “4”, “equivalent standard” for “equivalent”, “containing” for “containing only”, “chloride and 0.2% of an effective adjuvant blend” for “chloride.”

[2] = system: Ipomoea hederacea (IPOHE); assay type: in vivo
Excerpt: (§3) TEDA was first neutralized with hydrochloric acid to form the TEDA hydrochloride. An aqueous formulation of paraquat dichloride containing 0.5% by weight of TEDA based on total spray volume was applied to test species Ipomoea hederacea (IPOHE) and Sida spinosa (SIDSP) at 10 and 30 g/ha (based on paraquat ion). The spray volume was equivalent to 200 L/ha The biological data (% activity) at 6 days after treatment is expressed in Table 1 as an average response over the combined rates and is compared with an equivalent formulation containing only paraquat chloride.
(§4) The following compositions were compared using the general procedure of Example 1. TEDA was used in the form of its hydrochloride: • 1. An aqueous formulation containing paraquat dichloride and 0.5% by weight of TEDA hydrochloride based on total spray volume; • 2. An aqueous formulation containing paraquat dichloride and 0.5% by weight based on total spray volume of a mixture of TEDA hydrochloride and the surfactant EMPIGEN BB and TEDA at a ratio of TEDA to EMPIGEN BB of 5:2. EMPIGEN BB is lauryl betaine supplied at a concentration of 30%. The proportions given above and below are based on lauryl betaine content. • 3. An aqueous formulation (comparison) containing paraquat dichloride and 0.5% by weight based on total spray volume of EMPIGEN BB • 4. An aqueous formulation containing paraquat dichloride and 0.5% by weight based on total spray volume of a mixture of TEDA hydrochloride and the surfactant AGRIMUL PG2067 and TEDA at a ratio of TEDA to AGRIMUL PG2067 of 5:2. AGRIMUL PG2067 is an alkylpolyglycoside supplied at a concentration of 70%. The proportions given above and below are based on alkylpolyglycoside content. • 5. An aqueous formulation (comparison) containing paraquat chloride and 0.5% by weight based on total spray volume of AGRIMUL PG2067.

Sida spinosa (SIDSP) = assay type: in vivo
Excerpt: as §3, §4

[3] = assay type: physicochemical; settings: for loading at which compatible with compositions of WO 02/076212: actual amine
Excerpt: It is to be understood that the term physical incompatibility in relation to adjuvants used in bipyridyl compositions indicates either gross separation of one or more components of the composition which may or may not be accompanied by a significant change in formulation rheology or bulk homogeneity. It is not necessarily essential that the composition is fully homogeneous in a strict physical sense provided that the composition is substantially homogeneous in the bulk. Thus a slight separation of a second phase may be acceptable provided that the separated phase remains fully dispersed in the bulk. […] This is obviously undesirable for a number of reasons. The term physical compatibility indicates the reverse of physical incompatibility as defined above.

[4] = Example 2, general procedure of Example 1, adjuvant 0.5% by weight of total spray volume, TEDA:surfactant 5:2
[5] = Example 3, procedure of Example 1, adjuvant 0.5% by weight of total spray volume, TEDA salts with anionic surfactants
[6] = Example 4, 0.5% by weight amine, paraquat 10, 20 and 40 g/ha, 200 l/ha, 7 days after treatment, mean over all species and combined rates, three replicates

Structure (SMILES)	Mean Activity (%) ([1]; in vivo)	Mean Activity (%) [1, 6] [%]	loading at which compatible with compositions of WO 02/076212 [3]	other results
NCCN [EDA as HCl salt, ethylenediamine, reference compound]	54	–	–	–
C1CN2CCN1CC2 [TEDA, Triethylenediamine]	–	61	≥ 60 g/L	% Activity IPOHE [2, 4]: 64.4%; % Activity IPOHE [2, 5]: 63.8%; % Activity SIDSP (Sida spinosa (SIDSP); [4]): 35.8%; % Activity SIDSP (Sida spinosa (SIDSP); [5]): 45.9%
NCCNCCNCCN [TETA as HCl salt, triethylenetetramine, reference compound]	60	–	less than 30 g/l	–
CN(C)CCN(C)C [TMEDA as HCl salt, tetramethylethylenediamine]	–	59	≤ 30 g/L	Mean Activity (%) ([1]; Example 5, 0.2% by weight amine, paraquat 10, 20 and 40 g/ha, 200 l/ha, 7 days after treatment, mean over all species and combined rates, three replicates): 56%
CCCCCCCCOC(=O)CC(C(=O)OCCCCCCCC)S(=O)(=O)O.[Na] (stereo not shown) [sodium dioctyl sulphosuccinate, reference compound]	–	–	–	level at which physical separation / two phases observed ([3]; about 120 g/l paraquat ion, about 80 g/l diquat ion, alginate, about 120 g/l magnesium sulphate heptahydrate): below 10 g/l
